# Target: T1, human Oxytocin (hOT) receptor (Homo sapiens, UniProt P30559)
# T1 construct: expressed in transfected cells; host or cells: HEK293EBNA (membranes)
# T1 sequence (P30559 1-389): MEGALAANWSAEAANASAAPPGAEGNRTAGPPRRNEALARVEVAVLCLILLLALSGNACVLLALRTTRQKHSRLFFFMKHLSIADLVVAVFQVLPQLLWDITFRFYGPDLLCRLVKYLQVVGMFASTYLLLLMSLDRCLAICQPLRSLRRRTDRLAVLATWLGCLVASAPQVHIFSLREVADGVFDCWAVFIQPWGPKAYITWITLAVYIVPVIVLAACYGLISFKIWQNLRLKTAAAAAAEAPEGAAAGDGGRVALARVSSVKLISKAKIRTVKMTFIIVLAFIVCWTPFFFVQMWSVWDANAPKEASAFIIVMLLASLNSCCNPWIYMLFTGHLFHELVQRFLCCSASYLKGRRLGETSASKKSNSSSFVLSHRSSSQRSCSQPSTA
# Test: In vitro competition binding assay on hOT receptor with scintillation proximity assay ([125I]-OVTA)
# Settings: membranes from HEK293EBNA cells expressing the hOT receptor; 0.2 nM [125I]-OVTA; SPA; read-out: Binding Affinity hOT-R (Ki [nM])
# Experimental: The compounds according to formula (I) may be subjected to the following assays: • a) In Vitro Competition Binding Assay on hOT Receptor with Scintillation Proximity Assay (11).
# This assay allows to determine the affinity of the test compounds for the human Oxytocin (hOT) receptor. Membranes from HEK293EBNA (cells expressing the hOT receptor) were suspended in buffer containing 50 mM Tris-HCl, pH 7.4, 5 mM MgCl2 and 0.1% BSA (w/v). The membranes (2-4 μg) were mixed with 0.1 mg SPA bead coated with wheat-germ aglutinin (WGA-PVT-Polyethylene Imine beads from Amersham) and 0.2 nM of the radiolabelled [^125I]-OVTA (OVTA being Ornithin Vasoactive, an analogue of OT for competitive binding experiments). Non-specific binding was determined in the presence of 1 μM Oxytocin. The total assay volume was 100 μl. The plates (Corning® NBS plate) were incubated at room temperature for 30 min and counted on a Mibrobeta® plate scintillation counter. Competitive binding was performed in presence of compounds of formula (I) at the following concentrations: 30 μM, 10 μM, 1 μM, 300 nM, 100 nM, 10 nM, 1 nM, 100 pM, 10 pM. The competitive binding data were analysed using the iterative, nonlinear, curve-fitting program, “Prism” (GraphPad Software, Inc).
# The ability of pyrrolidine derivatives of formula (I) to inhibit the binding of ^125I-OVTA to the OT-receptor was assessed using the above described in vitro biological assay. Representative values for some example compounds are given in Table I where the binding affinity of test compounds from the above examples is expressed by the inhibition constant (Ki; nM). From these values, it can be derived that said test compounds according to formula (I) do show a significant binding to the oxytocin receptor.
row,Compound,Ki
1,CON=C1CC(CC(=O)NC[C@H](O)c2ccccc2)N(C(=O)c2ccc(-c3ccccc3)cc2)C1 (stereo partly drawn) [Example 5],67 nM
2,"CON=C1C[C@@H](CC(=O)OC2CCCC2)N(C(=O)c2ccc(-c3ccccc3)cc2)C1 [Example 3, cyclopentyl [(2S,4EZ)-1-(biphenyl-4-ylcarbonyl)-4-(methoxyimino)pyrrolidin-2-yl]acetate]",46 nM
3,"CON=C1C[C@@H](CCC(=O)NC[C@@H](O)c2ccccc2)N(C(=O)c2ccc(-c3ccccc3)cc2)C1 [Example 6, 3-[(2R,4EZ)-1-(biphenyl-4-ylcarbonyl)-4-(methoxyimino)pyrrolidin-2-yl]-N-[(2S)-2-hydroxy-2-phenylethyl]propanamide]",77 nM
4,"CON=C1CC(CC(=O)N2CCOCC2)N(C(=O)c2ccc(-c3ccccc3)cc2)C1 [Example 9, (3EZ,5S)-1-(biphenyl-4-ylcarbonyl-5-(2-morpholin-4yl-2-oxoethyl)pyrrolidin-3-one O-methyloxime]",142 nM

# Further compounds by falling Ki, results first:
row,Ki,Compound
1,144 nM,"CON=C1CC(CCC(=O)OC)N(C(=O)c2ccc(-c3ccccc3)cc2)C1 [Example 2, methyl 3-[(2R,4EZ)-1-biphenyl-4-ylcarbonyl)-4-(methoxyimino)pyrrolidin-2-yl]propanoate]"
2,37 nM,"CON=C1C[C@@H](CC(=O)OC)N(C(=O)c2ccc(-c3ccccc3)cc2)C1 [Example 1, methyl [(2S,4EZ)-1-(biphenyl-4-ylcarbonyl)-4-(methoxyimino)pyrrolidin-2-yl]acetate]"
